Values quoted from earlier work as cited in patent US6288110A, “Pharmaceutical compositions comprising disulfiram” (Yeda Research and Development Co Ltd., priority 1998, dated 2001).

Settings: non-enzymatic degradation; cited from earlier work

Structure (SMILES): CCN(CC)C(=S)S [DDC, diethyldithiocarbamate]
- further metabolism of DDC: non-enzymatic degradation to diethylamine (DEA)
